“Also recorded” adds a separate entry of the source.

Data set [1] deals with T1, BPV1 E6 (Bovine papillomavirus type 1, UniProt P06931). Nature of the data set: SPR. In kind it is binding.
The target of data set [2] is T1, BPV1 E6. It is filed as physicochemical. The conditions noted are these: peptide provided during BPV1 E6 biosynthesis.
The target of the next data set is HPV16 E6. The conditions noted are these: read-out: affinity of HPV16 E6 / E6AP; ref [29]; cited from earlier work.
For the next data set, the target named is T2, paxillin LXXLL peptide (Homo sapiens, UniProt P49023).
T2 chain: MDDLDALLADLESTT
Nature of the data set: SPR. Background: Surface plasmon resonance follows binding to a sensor surface in real time, without labels.

Data set [3] addresses T3, BPV1 E6 released from MBP-LXXLL-tevs-E6 by TEV protease (Bovine Papillomavirus Type 1, UniProt P06931 1-137).
T3 sequence: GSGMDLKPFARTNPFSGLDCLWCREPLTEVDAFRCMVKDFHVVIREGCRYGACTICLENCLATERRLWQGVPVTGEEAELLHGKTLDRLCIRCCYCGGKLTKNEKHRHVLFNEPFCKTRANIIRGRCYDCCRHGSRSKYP
As to the kind of experiment: SEC. In general terms: Size exclusion chromatography separates by hydrodynamic size, large species first.

Turning to DDLDALLADKE [paxillin], at BPV1 E6 [1] (SPR sensorgrams, paxillin as compared to E6AP), the “dissociation phase (in words)” value is listed as “remarkably slow dissociation phase; also recorded: slow dissociation rate kinetics”. The “affinity for BPV1 E6 (in words)” value on BPV1 E6 [1] (SPR, as compared to other E6/peptide interactions) is on record as “significantly higher affinity as compared to other E6/peptide interactions; also recorded: significantly stronger; also recorded: high affinity”.
As for “EFTMDDLDALLADKE [paxillin LXXLL peptide]”, at BPV1 E6 [2], the “effect on BPV1 E6 protein solubility (in words)” value is listed as “greatly enhanced the protein’s solubility”.
For ESSELTLQELLGEER [E6AP], on HPV16 E6, the Kd was 4 µM.

B1: E6 (protein)
chain: MDLKPFARTNPFSGLDCLWCREPLTEVDAFRCMVKDFHVVIREGCRYGACTICLENCLATERRLWQGVPVTGEEAELLHGKTLDRLCIRCCYCGGKLTKNEKHRHVLFNEPFCKTRANIIRGRCYDCCRHGSRSKYP
In the data set with paxillin LXXLL peptide, B1 had a Kd of 0.0351 µM.
For EFTMDDLDALLADKE [synthetic peptide derived from paxillin (LXXLL synthetic peptide)], the binding result in data set [3] is listed as “binds”.
On the same count and under the same terms, the result for MDDLDALLADGGSGSNENLYFQ [MBP-fused LXXLL peptide (MBP-LXXLL-tevs left after TEV digestion of MBP-LXXLL-tevs-E6)] reads “binds”.

(Values after paper PMC3183320 (Protein expression and purification, 2011).)
